Laboratory results from patent publication US7064204B2, “Pharmaceutically active compounds having a tricyclic pyrazolotriazolopyrimidine ring structure and methods of use” (King Pharmacueticals Reserch and Development, Inc., priority 2002, dated 2006).

Experiments:
[1] = target: T1, human A1 adenosine receptors (Homo sapiens, UniProt P30542); assay: Displacement of [3H]DPCPX binding at human A1 adenosine receptors expressed in CHO cells; conditions: Table 3: [3H]DPCPX, human A1, CHO cells
T1 construct: expressed in transfected cells; host or cells: CHO cells
T1 sequence (P30542 1-326): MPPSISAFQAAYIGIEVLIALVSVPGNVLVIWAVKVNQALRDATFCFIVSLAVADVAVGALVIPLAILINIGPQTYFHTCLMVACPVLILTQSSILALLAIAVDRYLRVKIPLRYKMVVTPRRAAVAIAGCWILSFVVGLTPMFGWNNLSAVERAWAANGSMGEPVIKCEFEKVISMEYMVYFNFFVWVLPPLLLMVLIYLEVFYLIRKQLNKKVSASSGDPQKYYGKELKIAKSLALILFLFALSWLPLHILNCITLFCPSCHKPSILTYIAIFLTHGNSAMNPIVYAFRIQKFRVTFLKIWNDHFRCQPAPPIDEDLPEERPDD

[2] = target: T2, human A2A adenosine receptors (Homo sapiens, UniProt P29274); assay: Displacement of [3H]SCH58261 binding at human A2A adenosine receptors expressed in CHO cells; conditions: Table 3: [3H]SCH58261, human A2A, CHO cells
T2 construct: expressed in transfected cells; host or cells: CHO cells
T2 sequence (P29274 whole entry): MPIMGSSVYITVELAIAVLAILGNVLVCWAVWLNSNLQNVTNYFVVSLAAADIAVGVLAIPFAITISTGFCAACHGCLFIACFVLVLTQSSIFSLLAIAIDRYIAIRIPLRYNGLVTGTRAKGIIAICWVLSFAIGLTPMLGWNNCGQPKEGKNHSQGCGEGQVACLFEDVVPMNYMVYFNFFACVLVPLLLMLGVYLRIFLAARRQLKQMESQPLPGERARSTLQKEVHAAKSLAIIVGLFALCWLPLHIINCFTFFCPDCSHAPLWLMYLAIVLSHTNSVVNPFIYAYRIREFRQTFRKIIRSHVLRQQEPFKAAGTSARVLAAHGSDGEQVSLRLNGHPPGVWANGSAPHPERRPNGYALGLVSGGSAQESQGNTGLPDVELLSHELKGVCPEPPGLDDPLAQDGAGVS

[3] = target: T3, human A2B adenosine receptors (Homo sapiens, UniProt P29275); assay: Displacement of [3H]DPCPX binding at human A2B adenosine receptors expressed in HEK-293 cells; conditions: Table 3: [3H]DPCPX, HEK-293 cells
T3 construct: expressed in transfected cells; host or cells: HEK-293 cells
T3 sequence (P29275 1-332): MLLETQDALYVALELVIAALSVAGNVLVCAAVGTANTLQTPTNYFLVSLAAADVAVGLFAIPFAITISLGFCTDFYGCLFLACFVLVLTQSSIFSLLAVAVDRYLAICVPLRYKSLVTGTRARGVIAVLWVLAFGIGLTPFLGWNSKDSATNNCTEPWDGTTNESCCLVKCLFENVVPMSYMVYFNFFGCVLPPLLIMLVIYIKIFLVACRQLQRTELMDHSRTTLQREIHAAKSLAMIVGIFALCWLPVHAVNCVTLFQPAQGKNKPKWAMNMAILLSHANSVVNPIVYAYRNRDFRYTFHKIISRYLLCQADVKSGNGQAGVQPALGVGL

[4] = target: T4, human A3 adenosine receptors (Homo sapiens, UniProt P0DMS8); assay: Displacement of [3H]MRE 3008F20 binding at human A3 adenosine receptors expressed in CHO cells; parameters: expressed in transfected cells; host or cells: CHO cells; conditions: for Ki: Table 3: [3H]MRE 3008F20, human A3, CHO cells
T4 sequence (P0DMS8 1-318): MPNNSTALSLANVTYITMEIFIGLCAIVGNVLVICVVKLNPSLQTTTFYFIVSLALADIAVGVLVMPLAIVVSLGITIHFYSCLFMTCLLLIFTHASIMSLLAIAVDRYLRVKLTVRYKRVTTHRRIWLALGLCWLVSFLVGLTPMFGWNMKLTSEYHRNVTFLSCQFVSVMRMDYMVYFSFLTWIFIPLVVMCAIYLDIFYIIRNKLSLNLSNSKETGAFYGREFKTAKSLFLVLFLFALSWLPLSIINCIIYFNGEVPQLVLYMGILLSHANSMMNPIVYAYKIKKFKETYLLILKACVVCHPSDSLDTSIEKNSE

[5] = Water solubility (stated in words); type: physicochemical
[6] = target: T4, human A3 adenosine receptors; assay: Displacement of [125I]AB MECA binding at human A3 adenosine receptors expressed in HEK-293 cells; parameters: expressed in transfected cells; conditions: Table 2, footnote a: [125I]AB MECA, human A3, HEK-293 cells

CCNc1c2c(nc(NC(=O)Cc3ccc4c(c3)OCO4)n3nc(-c4ccco4)nc23)nn1C [Compound 50, 2-Benzo[1,3]dioxol-5-yl-N-(9-ethylamino-2-furan-2-yl-8-methyl-8H-pyrazolo[4,3-e][1,2,4]triazolo[1,5-c]pyrimidin-5-yl)-acetamide]
Ki [1]: 136 nM
Ki [2]: 61 nM
Ki [3]: 65 nM
Ki [4]: 183 nM

CCNc1c2c(nc(NC(=O)Nc3ccc(OC)cc3)n3nc(-c4ccco4)nc23)nn1C.Cl [Compound 55, 1-(9-Ethylamino-2-furan-2-yl-8-methyl-8H-pyrazolo[4,3-e][1,2,4]triazolo[1,5-c]pyrimidin-5-yl)-3-(4-methoxy-phenyl)-urea hydrochloride salt]
Ki ([1]; hydrochloride salt): 100 nM
Ki [2]: 16 nM
Ki ([3]; hydrochloride salt): 23 nM
water solubility [5]: complete water solubility
Ki [4]: 9 nM
selectivity for A3 versus the other adenosine receptor subtypes ([4]; in words): very low
affinity for / interaction with A3 adenosine receptor subtype ([4]; in words, discussion of Tables 2 and 3): increased

CSc1c2c(nc(N)n3nc(-c4ccc(CN5CCN(C)CC5)o4)nc23)nn1C [Compound 56]
water solubility [5]: significant water solubility

Nc1nc2c(cnn2CCc2ccccc2)c2nc(-c3ccco3)nn12 [SCH 58261, 5-amino-7-(2-phenylethyl)-2-(2-furyl)pyrazolo[4,3-e]1,2,4-triazolo[1,5-c]pyrimidine]
Ki [6]: > 1000 nM
